Experimental data: publication PMC10707934, “Design and Synthesis of Novel α-Methylchalcone Derivatives, Anti-Cervical Cancer Activity, and Reversal of Drug Resistance in HeLa/DDP Cells” (Molecules, 2023)

Assays:
Format in all cases: cell-based, human
HeLa/DDP cells = test: Rhodamine 123 accumulation in HeLa/DDP cells; details: 48 h, 0.5 and 1 μM
Procedure: The experimental procedure involved the addition of 1 drop of PBS to each well of a 12-well plate, followed by the placement of cell crawlers and removal of excess PBS. HeLa/DDP cells were then plated at a concentration of 1.5 × 10^5 cells/mL, with 1 mL per well, and cultured for a duration of 24 h. A blank control group was established alongside a positive group treated with verapamil (6 μM) and an intervention group treated with 3k (0.25, 0.5, and 1 μM) for a duration of 48 h. The drug-containing culture medium was subsequently washed with PBS three times, with each wash lasting 5 min. The Rh123 master mix was diluted with culture medium to create a 20 μM Rh123 buffer, which was subsequently incubated at a temperature of 37 °C for a duration of 1 h. Following this incubation period, the Rh123 buffer was removed, and the cells were subjected to three consecutive washes with PBS, each lasting for 10 min. Subsequently, a fixation process was conducted using 4% paraformaldehyde at a volume of 1 mL per well, with a duration of 20 min. […] Subsequently, the side containing cells was affixed onto the liquid and made ready for measurement. The cells were then examined using a fluorescence microscope (Leica, Microsystems CMS GmbH, GER) equipped with a fluorescein filter, and the fluorescence intensity of each distinct group was assessed.

Bax [1] = test: Western blot, Bax expression in HeLa cells; details: 24 h, 2.5, 5, and 10 μM
Procedure: (§1) HeLa cells were cultured in 60 mm Petri dishes at a density of 1.0 × 10^6 cells per dish and treated with 0.1% DMSO (vehicle), positive control chalcone (20 μM), and different concentrations of compound 3k (2.5, 5, and 10 μM), respectively. Following a 24 and 48 h incubation period, the cells were harvested via centrifugation and subsequently washed twice with PBS that had been chilled to 0 °C. Next, the cells were homogenized using RIPA lysis buffer (Solarbio, Beijing, China) and supplemented with 1% PMSF (MP Biomedicals, 0754-25G, CAS:329-98-6, Santa Ana, CA, USA) and 1% mixed phosphatase inhibitor (Solarbio, Beijing, China). […]
(§2) Subsequently, the protein concentrations were determined utilizing a BCA Protein Assay Kit (Solarbio, China). An equivalent quantity of the proteins (12 μg) was fractionated via 8–12% sodium dodecyl sulfate–polyacrylamide gel electrophoresis (SDS-PAGE) and transferred onto nitrocellulose membranes (Amersham Biosciences, Amersham, UK). […] The blots were subsequently visualized using enhanced chemiluminescence (Biosharp, Shanghai, China) and detected utilizing a PE 0723 imager (ProteinSimple, Silicon Valley, CA, USA). Each experiment was conducted in triplicate at minimum and analyzed employing Image J software (V1.8.0.112). β-actin(ab198991) rabbit mAb, goat anti-rabbit IgG (H + L) HRP—#S0001 (Affinity). […]

[2] = system: α-/β-tubulins in HeLa/DDP cells; test: Western blot of polymerized and dissociated α-/β-tubulins, HeLa/DDP; details: versus control
Procedure: (§3) HeLa cells were cultured in 60 mm Petri dishes at a density of 1.0 × 10^6 cells per dish and treated with 0.1% DMSO (vehicle), positive control chalcone (20 μM), and different concentrations of compound 3k (2.5, 5, and 10 μM), respectively. Following a 24 and 48 h incubation period, the cells were harvested via centrifugation and subsequently washed twice with PBS that had been chilled to 0 °C. Next, the cells were homogenized using RIPA lysis buffer (Solarbio, Beijing, China) and supplemented with 1% PMSF (MP Biomedicals, 0754-25G, CAS:329-98-6, Santa Ana, CA, USA) and 1% mixed phosphatase inhibitor (Solarbio, Beijing, China). The resulting lysates were then incubated on ice for 30 min, intermittently vortexed every 5 min, and subsequently centrifuged at 12,000 rpm for 20 min to collect the supernatants.
(§4) Subsequently, the protein concentrations were determined utilizing a BCA Protein Assay Kit (Solarbio, China). An equivalent quantity of the proteins (12 μg) was fractionated via 8–12% sodium dodecyl sulfate–polyacrylamide gel electrophoresis (SDS-PAGE) and transferred onto nitrocellulose membranes (Amersham Biosciences, Amersham, UK). Following this, the membranes were obstructed with 5% nonfat dried milk in TBS containing 1% Tween-20 for a duration of 2 h at ambient temperature and were subjected to overnight incubation with specific primary antibodies (CST, Boston, MA, USA) at 4 °C. Following three washes in TBST, the membranes were subjected to incubation with the suitable HRP-conjugated secondary antibodies at ambient temperature for a duration of 2 h. The blots were subsequently visualized using enhanced chemiluminescence (Biosharp, Shanghai, China) and detected utilizing a PE 0723 imager (ProteinSimple, Silicon Valley, CA, USA). Each experiment was conducted in triplicate at minimum and analyzed employing Image J software (V1.8.0.112). β-actin(ab198991) rabbit mAb, goat anti-rabbit IgG (H + L) HRP—#S0001 (Affinity). Bax (ab289364), Bcl-2 (ab218123), MDR1/ABCB1 (E1Y7B) rabbit mAb #13342 (CST).
(§5) Polymerized and free microtubule proteins were extracted using the methods described in references, respectively. Following drug intervention, the cells were subjected to two washes with preheated microtubule protein buffer MTSB at 37 °C. Subsequently, 70 μL of MTSB was added, and the cells were lysed for 10 min at 37 °C in a constant temperature chamber shielded from light. The cells were then scraped with a spatula and centrifuged at 14,000 r/min for 10 min at room temperature. The resulting supernatant, which represented the free state microtubule protein suspension, was subsequently removed. The remaining precipitate was treated with RIPA lysis solution, followed by lysis on ice for a duration of 30 min. Subsequently, centrifugation was performed at a temperature of 4 °C and a speed of 12,000 revolutions per minute for a duration of 20 min. The resulting supernatant was collected as a suspension of polymerized microtubule protein. The Western blotting procedure was the same as in Section 3.3.4. α-Tubulin (DM1A) Mouse mAb#3873 (CST), β-Tubulin (D2N5G) Rabbit mAb #15115 (CST), CoraLite488-conjugated Goat Anti-Mouse lgG(H+L) (Proteintech); CoraLite488-conjugated Goat Anti-Rabbit lgG(H+L) (Proteintech); β-actin(ab198991) rabbit mAb, Goat Anti-Mouse IgG H&L (HRP) (ab6789); Goat anti-Rabbit IgG (H+L) HRP—#S0001 (Affinity).

P-gp = test: Western blot, P-gp expression in HeLa/DDP cells; details: 48 h, 0.25, 0.5, or 1 μM
[3] = system: α-/β-tubulins in HeLa cells; test: Western blot of polymerized and dissociated α-/β-tubulins, HeLa; details: 24 h, versus control
Procedure: as §3, §4, §5

[4] = system: α-tubulin, β-tubulin in HeLa/DDP cells; test: Immunofluorescence assay of microtubules, HeLa/DDP; details: 24 h, 3k 1, 2, and 4 μM, paclitaxel 2.0 μM
Procedure: (§6) The cells were then fixed by adding 400 μL of 4% paraformaldehyde to each well and incubating for 30 min. 0.1% Triton was added at a volume of 400 μL per well and allowed to incubate for 10 min. Following this, goat serum (10%) was added at 400 μL per well and incubated for 40 min. Primary antibodies (α-tubulin, β-tubulin) were then incubated overnight at a temperature of 4 °C. Subsequently, secondary antibodies (α-mouse, β-rabbit) were incubated for 1.5 h. DAPI staining was performed at 400 μL per well for 5 min, followed by a wash with PBS. Cell climbing tablets were removed and inverted onto slides with sealer. Photographs were captured using a fluorescent inverted microscope.

[5] = system: α-tubulin, β-tubulin in HeLa cells; test: Immunofluorescence assay of microtubules, HeLa; details: 24 h, 3k 1, 2, and 4 μM, colchicine and paclitaxel 2.0 μM
Procedure: as §6

Bax [6] = test: Western blot, Bax expression in HeLa/DDP cells; details: 24 h, 5 and 10 μM
Procedure: as §1, §2

For COc1ccc(/C=C(\C)C(=O)c2ccc(Cl)c(Cl)c2)cc1OC [Compound 3k, (E)-1-(3,4-Dichlorophenyl)-3-(3,4-dimethoxyphenyl)-2-methylprop-2-en-1-one], the “average fluorescence intensity emitted by rhodamine 123” value (HeLa/DDP cells) was “notably greater than that of the control group”, the “Bax expression versus control group” value (Bax [1]) was “significant upregulation” and the “expression of polymerized β microtubulin” value ([2]; 24 h, 1, 2, and 4 μM) was “significant reduction”. The “expression of polymerized α-microtubulin” value ([2]; 24 h, 2 and 4 μM) was “significant decrease”, the “expression of dissociated state α and β microtubule proteins” value ([2]; 24 h, 3k 4 μM, colchicine and paclitaxel 2.0 μM) was “significant increase” and the “expression of P-gp” value (P-gp) was “remained unchanged”. For the same compound, the “expression of dissociated state α and β microtubule proteins” value ([3]; 3k 4 μM, colchicine 2 μM, paclitaxel 2.0 μM) was “significant increase”, the “expression of α and β microtubule proteins in the polymerized state” value ([3]; 3k 2 and 4 μM, colchicine and paclitaxel 2.0 μM) was “significant decrease” and the “microtubule immunofluorescence (α green, β red)” value [4] was “attenuation of the green and red fluorescence of the enclosed cells”. For the same compound, the “microtubule immunofluorescence (α green, β red)” value [5] was “green and red fluorescence of the encapsulated cells weakened” and the “Bax expression versus control group” value (Bax [6]) was “significant increase”.
